In patent US5891864A, “Anti-cancer compositions” (Han; Yung Bok, priority 1995, dated 1999):

Tests used:
[1] = tested on: mouse lung cancer cells 3LL; assay: MTT in vitro test, cell survival rate of mouse lung cancer cell line 3LL; format: cell-based
Procedure: (§1) In vitro test for the effect of the composition (AG60) of the present invention on mouse lung cancer cells 3LL and human hepatoma cells SK-HEP-1
(§2) Cancer cells used for this test include human hepatoma cell line SK-HEP-1 and mouse lung cancer cell line 3LL, as recommended by the U.S. NCI(National Cancer Institute).
(§3) These cell lines were incubated in the culture media prepared by adding 10% inactivated FBS(fetal bovine serum), 100 μg/ml of streptomycin and 100 units/ml of penicillin to RPMI 1640 medium, at 37° C. in an incubator(Heraus) under 5% CO2 and 100% humidity. […] After 2 days, the survival rate of cells was calculated by carrying out MTT method using determination of dehydrogenase enzyme in cellular mitochondria and measuring the absorbance at 540 nm by means of a spectrophotometer (ELISA reader), to determine the anti-cancer activity of the composition according to the present invention against respective cancer cells. MTT test is a method in which formazan precipitate formed by reduction of MTT with cellular mitochondria dehydrogenase in living cells is dissolved and then the absorbance is measured. Thus, since in vigorously dividing cancer cells the enzyme is fully active, by the action of enzyme MTT is reduced to form the precipitate which can be dissolved to determine the absorbance, thereby identifying the survival rate of respective cells. […]

[2] = tested on: human hepatoma cells SK-HEP-1; assay: MTT in vitro test, cell survival rate of human hepatoma cell line SK-HEP-1; format: cell-based
Procedure: as §1, §2, §3

Ehrlich solid tumor = assay: Comparative test for inhibition of Ehrlich solid tumor proliferation; format: in vivo, mouse; details: An 15, Gh 15, AG60 30 mg/kg; for size of cancer tissue (solid tumor proliferation): i.m. once a day
Procedure: Comparative test for inhibition of Ehrlich solid tumor proliferation with acriflavine neutral(An), guanosine hydrate(Gh) and the composition(AG60) of the present invention
Normal 20 ICR mice(.male., 20±1 g) were divided into 4 groups such that each group included 5 mice. Ehrlich cancer cells were transplanted into the inguinal area of all experimental animals in an amount of 1×10^7 cells per animal. After 24 hours, the control group A received physiological saline in an amount of 10 ml/kg by intramuscular injection, once a day, for 15 days. As the comparative groups, the groups B and C received acriflavine neutral(An) in an amount of 15 mg/kg and guanosine hydrate(Gh) in an amount of 15 mg/kg, respectively, in the same manner as the control group. To the group D the composition (AG60) of the present invention was administered in an amount of 30 mg/kg in the same manner as the control group. During 15 days after the transplantation of cancer cells the proliferation of solid tumor in each group was observed.
The effects on the solid tumor proliferation of the composition(AG60) of the present invention, acriflavine neutral(An) and guanosine hydrate(Gh) were determined by measuring the size of cancer tissues in control group A, the acriflavine neutral group B, the guanosine hydrate group C and the present composition(AG60) group D from the fifth day to the fifteenth day after the transplantation of cancer cells at an interval of 2 days, and are presented in Table 3 and FIG. 5. […] In group D to which the composition(AG60) of the present invention was administered, the size of cancer tissue was measured as 1.5 mm after 5 days from transplantation and, thereafter, increased 0.35 mm every 2 days.

[3] = cold / warm water; cited from earlier work

SMILES | cytotoxicity / anti-cancer activity in words ([1]; 3LL cells) | IC50 ([1]; Mus musculus, 3LL, 48 h, read-out: ID value (survival rate of cells)) [µg/mL] | IC50 ([2]; Homo sapiens, SK-HEP1, 48 h, read-out: ID value (survival rate of cells)) [µg/mL] | cytotoxicity / anti-cancer activity in words ([2]; SK-HEP-1 cells) | size of cancer tissue (solid tumor proliferation) (Ehrlich solid tumor; day 5) [mm] | size of cancer tissue (solid tumor proliferation) (Ehrlich solid tumor; day 7) [mm] | size of cancer tissue (solid tumor proliferation) (Ehrlich solid tumor; day 9) [mm] | size of cancer tissue (solid tumor proliferation) (Ehrlich solid tumor; day 11) [mm] | size of cancer tissue (solid tumor proliferation) (Ehrlich solid tumor; day 13) [mm] | size of cancer tissue (solid tumor proliferation) (Ehrlich solid tumor; day 15) [mm] | inhibition of solid tumor proliferation in words (Ehrlich solid tumor; i.m. once a day for 15 days) | solubility in water [3]
Nc1nc2c(ncn2[C@@H]2O[C@H](CO)[C@@H](O)[C@H]2O)c(=O)[nH]1.O [Guanosine hydrate] | did not show any anti-cancer activity | 1520 | 1530 | did not show any anti-cancer activity | 4.7 | 6.8 | 8.5 | 12.3 | 14.5 | 18.2 | showed the similar proliferation pattern to each other | 
Nc1nc2c(ncn2[C@@H]2O[C@H](CO)[C@@H](O)[C@H]2O)c(=O)[nH]1 [Guanosine, 2-amino-9-β-D-ribofuranosyl-9H-purin-6-(1H)-one] |  |  |  |  |  |  |  |  |  |  |  | slighly soluble in cold water but soluble in warm water
